ED50 and IC50 data for eight compounds are collected here from patent publication US5300524A, “Spirocyclic PAF antagonists” (British Bio-Technology Limited, priority 1991, dated 1994).

Structures are written as SMILES. pIC50: −log10 of the molar value.

In one assay the test system is PAF-induced hypotension in rats. Description: Reversal of PAF-induced hypotension in the rat. In kind it is in vivo. To be noted: iv, anaesthetised male Sprague-Dawley rats, PAF 100 ng.kg^-1 min^-1 i.v. infusion, compound i.v. bolus, read-out: ED50, dose to cause a 50% reversal of the hypotensive PAF response. The procedure: Compounds of general formula I inhibit PAF-induced functions in both the cellular and tissue levels by changing the PAF binding to its specific receptor site. The ability of compounds of general formula I to inhibit the binding of PAF to its specific receptor binding site on human platelet plasma membranes was measured according to Pharmacological Example 1. The ability of compounds of general formula I to reverse the hypotension caused by an infusion of PAF in rats was measured according to Pharmacology Example 2. […] Male Sprague-Dawley rats (300-350 gms) were anaesthetised with a mixture of sodium pentobarbitone, 22.5 mg.kg^-1 and thiopental 62.5 mg.kg^-1. Through a midline incision in the neck, the trachea was cannulated and the animals breathed spontaneously. A carotid artery was cannulated for the measurement of blood pressure and this signal was used to trigger a rate meter to measure heart rate. Both jugular veins were cannulated: one for the infusion of PAF and the other for the bolus administration of test compounds.
As for `COc1ccc(C2CCC3(O2)C(=O)C(=Cc2cccnc2)CC3c2ccc(OC)c(OC)c2)cc1OC` (stereo not drawn) [Example 2, 1-Oxa-6-oxo-7-(3-pyridyl)methylene-2,9-di(3,4-dimethoxyphenyl)spiro[4,4]nonane], the ED50 was 0.8 mg/kg.

The target in the next assay is T1, PAF receptor (^3 H-PAF binding to human platelet plasma membrane) (Homo sapiens, UniProt P25105).
T1 construct: from tissue; host or cells: human platelets (concentrates from a hospital blood bank), lysed by freeze-thaw, membrane fraction
T1 sequence (P25105 whole entry): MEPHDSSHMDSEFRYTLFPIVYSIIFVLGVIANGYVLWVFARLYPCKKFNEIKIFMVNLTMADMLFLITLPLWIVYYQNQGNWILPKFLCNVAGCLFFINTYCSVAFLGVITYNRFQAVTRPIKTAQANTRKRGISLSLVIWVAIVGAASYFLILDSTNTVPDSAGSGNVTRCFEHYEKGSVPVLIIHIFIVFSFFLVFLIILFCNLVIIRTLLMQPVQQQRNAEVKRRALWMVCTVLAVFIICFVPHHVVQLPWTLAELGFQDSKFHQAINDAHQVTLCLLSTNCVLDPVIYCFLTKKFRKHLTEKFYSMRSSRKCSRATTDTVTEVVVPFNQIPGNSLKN
As to the kind of experiment: Inhibition of ^3H-PAF binding to human platelet plasma membrane (isotopic labelling and filtration). To be noted: human platelet membranes, 0.5 nM ^3H-PAF, 1 hour, 0° C.
For `COc1ccc(C2CCC3(O2)C(=O)CCC3c2ccc(OC)c(OC)c2)cc1OC` (single isomer, unassigned) [Example 1A, 1-oxa-6-oxo-2,9-(3,4-dimethoxyphenyl)spiro[4,4]nonane], the pIC50 was 4.92.

As for `COc1ccc(C2CCC3(O2)C(=O)C(=Cc2cccnc2)CC3c2ccc(OC)cc2)cc1` (stereo not drawn) [Example 19, 1-Oxa-6-oxo-7-(3-pyridyl)methylene-2,9-di(4-methoxyphenyl)spiro[4,4]nonane], the pIC50 was 5.05.

In turn, `COc1ccc(C2CCC3(O2)C(=O)C(=Cc2cccc(Cl)c2)CC3c2ccc(OC)c(OC)c2)cc1OC` (stereo not drawn) [Example 5, 1-Oxa-6-oxo-7-(3-chlorophenyl)methylene-2,9-di(3,4-dimethoxyphenyl)spiro[4,4]nonane] gave a pIC50 of 5.30.

`COc1ccc(C2CCC3(O2)C(=O)C(=CCCc2cccnc2)CC3c2ccc(OC)c(OC)c2)cc1OC` (stereo not drawn) [Example 10, 1-Oxa-6-oxo-7-(3-pyridylethyl)methylene-2,9-di(3,4-dimethoxyphenyl)spiro[4,4]nonane]: the pIC50 was 5.82.

For `COc1ccc(C2CCC3(O2)C(=O)C(=Cc2cccnc2)CC3c2ccc(OC)c(OC)c2)cc1OC` (stereo not drawn) [Example 2, 1-Oxa-6-oxo-7-(3-pyridyl)methylene-2,9-di(3,4-dimethoxyphenyl)spiro[4,4]nonane], the pIC50 is 5.52.

As for `COc1ccc(C2CCC3(O2)C(=CC#N)CCC3c2ccc(OC)c(OC)c2)cc1OC` (stereo not drawn) [Example 17, 1-Oxa-6-cyanomethylene-2,9-di(3,4-dimethoxyphenyl)spiro[4,4]nonane], the pIC50 is 5.82.

`COc1ccc(C2CCC3(O2)C(=O)C(=CCCCCc2cccnc2)CC3c2ccc(OC)c(OC)c2)cc1OC` (stereo not drawn) [Example 11, 1-Oxa-6-oxo-7-(3-pyridylbutyl)methylene-2,9-di(3,4-dimethoxyphenyl)spiro[4,4]nonane] gave a pIC50 of 6.00.

In turn, `COc1ccc(C2CCC3(O2)C(=O)CCC3c2ccc(OC)cc2)cc1` (stereo not drawn) [Example 18, 1-Oxa-6-oxo-2,9-di(4-methoxyphenyl)spiro[4,4]nonane] had a pIC50 of 5.30.
